Measured values as given in patent EP0121972A2, “N-aryl-alpha-amino-carboxamides” (JANSSEN PHARMACEUTICA N.V., priority 1983, dated 1984).

Test system: multifocal ventricular arrhythmia
Assay: Antiarrhythmic effect in dogs with ventricular arrhythmia after coronary artery ligation
Assay type: in vivo
Conditions: given intravenously; for minimal effective dose: Canis lupus familiaris, iv, lowest effective dose normalizing the cardial rhythm, about 16 hours after ligation of the anterior descendent branch of the left coronary artery, under neuroleptanalgesia, read-out: Antiarrhythmic effects in dogs LED in mg/kg body weight; for Antiarrhythmic effects in dogs duration: duration of action at the lowest effective dose, coronary-ligated dogs
Experimental: The compounds of formula (I) and their pharmaceutically acceptable acid addition salts and possible stereochemically isomeric forms thereof show excellent antiarrhythmic properties and as such they are useful in the normalization of irregular cardial rhythms. The antiarrhythmic effect of the compounds of this invention is clearly illustrated in the following experiment in dogs. The test was carried out under neuroleptanalgesia (1 ml per 10 kg body weight of fentanyl (0.4 mg/ml) and droperidol (20 mg/ml)).
The test compounds were given intravenously after a control period of 30 minutes.

Row | Structure (SMILES) | minimal effective dose [mg/kg] | Antiarrhythmic effects in dogs duration [min]
1 | Cc1cccc(C)c1NC(=O)C1(N(C)C)CCN(CC(O)CN(Cc2ccccc2)Cc2ccccc2)CC1 (centres unmarked) [compound 96, 1-[3-[bis(phenylmethyl)amino]-2-hydroxypropyl]-4-(dimethylamino)-N-(2,6-dimethylphenyl)-4-piperidinecarboxamide] | 0.31 | 40
2 | CCN(CC)CCN1CCC(C(=O)Nc2c(C)cccc2C)(N(C)C)CC1 [compound 163, 1-[2-(diethylamino)ethyl]-4-(dimethylamino)-N-(2,6-dimethylphenyl)-4-piperidinecarboxamide] | 0.31 | 220
3 | Cc1cccc(C)c1NC(=O)C1(N(C)C)CCN([C@@H]2CCC[C@H]2N(CCO)Cc2ccccc2)CC1 (relative stereo) [compound 225, trans-4-(dimethyl-amino)-N-(2,6-dimethylphenyl)-1-[2-[(2-hydroxyethyl)(phenylmethyl)-amino]cyclopentyl]-4-piperidinecarboxamide] | 0.08 | 140
4 | CC(=O)N[C@H]1CCC[C@@H]1N1CCC(C(=O)Nc2c(C)cccc2C)(N(C)C)CC1 (relative stereo) [compound 219, trans-l-[2-(acetylamino)cyclopentyl]-4-(dimethylamino)-N-(2,6-dimethylphenyl)-4-piperidinecarboxamide] | 0.08 | 285
5 | CCCN1CCC(C(=O)Nc2c(C)cccc2C)(N(C)C)CC1 [compound 136] | 0.16 | 15
6 | CCN(C)C1(C(=O)Nc2c(C)cccc2C)CCN(C(C)C)CC1 [compound 138] | 1.25 | 100
7 | Cc1cccc(C)c1NC(=O)C1(N(C)C)CCN([C@@H]2CCCC[C@H]2O)CC1 (relative stereo) [compound 89, trans-4-(dimethylamino)-N-(2,6-dimethylphenyl)-1-(2-hydroxycyclohexyl)-4-piperidinecarboxamide] | 0.04 | 240
8 | CCCCN1CCC(C(=O)Nc2c(C)cccc2C)(N(C)C)CC1 [compound 137] | 0.16 | 145
9 | Cc1cccc(C)c1NC(=O)C1(N(C)C)CCN([C@H]2CNCC[C@@H]2O)CC1 (relative stereo) [compound 211, trans-4-(dimethylamino)-N-(2,6-dimethylphenyl)-4'-hydroxy-[l,3'-bipiperidine]-4-carboxamide] | 0.63 | 160
10 | Cc1cccc(C)c1NC(=O)C1(N(C)C)CCN([C@H]2CCC[C@@H]2N)CC1 (relative stereo) [compound 217, trans-l-(2-aminocyclopentyl)-4-(dimethylamino)-N-(2,6-dimethylphenyl)-4-piperidinecarboxamide] | 0.31 | 50
11 | Cc1cccc(C)c1NC(=O)C1(N(C)C)CCN(C(C)C)CC1 [compound 132] | 0.16 | 140
12 | Cc1cc(N(C)C)cc(C)c1NC(=O)C1(N(C)C)CCN([C@@H]2CCCC[C@H]2O)CC1 (relative stereo) [compound 125] | 0.08 | 165
13 | Cc1cccc(C)c1NC(=O)C1(N)CCN(C2CCCC2)CC1 [compound 190, 4-amino-l-cyclopentyl-N-(2,6-dimethylphenyl)-4-piperidinecarboxamide] | 1.25 | 110
14 | C=CCN1CCC(C(=O)Nc2c(C)cccc2C)(N(C)C)CC1 [compound 162, 4-(dimethylamino)-N-(2,6-dimethylphenyl)-l-(2-propenyl)-4-piperidinecarboxamide] | 0.31 | 25
15 | CCN(CC)C1(C(=O)Nc2c(C)cccc2C)CCN(C(C)C)CC1 [compound 53, 4-(diethylamino)-N-(2,6-dimethylphenyl)-1-(1-methylethyl)-4-piperidinecarboxamide] | 0.63 | 140
16 | CCNC1(C(=O)Nc2c(C)cccc2C)CCN(C(C)C)CC1 [compound 189, N-(2,6-dimethylphenyl)-4-(ethylamino)-l-(l-methylethyl)-4-piperidinecarboxamide] | 0.63 | 175
17 | Cc1cccc(C)c1NC(=O)C1(N(C)C)CCN(CC(O)CN)CC1 (centres unmarked) [compound 191, 1-(3-amino-2-hydroxypropyl)-4-(dimethylamino)-N-(2,6-dimethylphenyl)-4-piperidinecarboxamide] | 1.25 | 20
18 | CCN(C)C1(C(=O)Nc2c(C)cccc2C)CCN(C(C)C(N)=O)CC1 (centres unmarked) [compound 174] | 1.25 | 120
19 | CCN1CCC(O)C(N2CCC(C(=O)Nc3c(C)cccc3C)(N(C)C)CC2)C1 (centres unmarked) [compound 212] | 0.31 | 60

Row | Structure (SMILES) | minimal effective dose [mg/kg] | Antiarrhythmic effects in dogs duration [min]
20 | Cc1cccc(C)c1NC(=O)C1(N(C)C)CCN(CC2CC2)CC1 [compound 135] | 0.16 | 190
21 | CCN(C)C1(C(=O)Nc2c(C)cccc2C)CCNCC1 [compound 73, N-(2,6-dimethylphenyl)-4-(ethylmethylamino)-4-piperidine carboxamide] | 0.63 | 30
22 | Cc1cccc(C)c1NC(=O)C1(N2CCOCC2)CCN([C@@H]2CCCC[C@H]2O)CC1 (relative stereo) [compound 127, trans-N-(2,6-dimethylphenyl)-l-(2-hydroxycyclohexyl)-4-(4-morpholinyl)-4-piperidinecarboxamide] | 0.31 | 55
23 | Cc1cccc(C)c1NC(=O)C1(N(C)C)CCN([C@H]2CCC[C@@H]2NCCO)CC1 (relative stereo) [compound 231, trans-4-(dimethylamino)-N-(2,6-dimethylphenyl)-l-[2-[(2-hydroxyethyl)amino]cyclopentyl]-4-piperidinecarboxamide] | 0.16 | >230
24 | CCN(CC)C1(C(=O)Nc2c(C)cccc2C)CCN([C@@H]2CCC[C@H]2O)CC1 (relative stereo) [compound 92] | 0.31 | 205
25 | CCN(CC)C1(C(=O)Nc2cc(Cl)ccc2C)CCN(C(C)C)CC1 [compound 143] | 0.31 | 95
26 | Cc1cccc(C)c1NC(=O)C1(N(C)C)CCN([C@@H]2CCNC[C@H]2O)CC1 (relative stereo) [compound 210, trans-4-(dimethylamino)-N-(2,6-dimethylphenyl)-3'-hydroxy-[1,4'-bipiperidine]-4-carboxamide] | 0.16 | 25
27 | CCOC(=O)N1CCC(N2CCC(C(=O)Nc3c(C)cccc3C)(N(C)C)CC2)C(OC)C1 (centres unmarked) [compound 144] | 0.16 | 40
28 | CCN1CCC(C(=O)Nc2c(C)cccc2C)(N(C)C)CC1 [compound 134] | 0.63 | 100
29 | CCN(CC)C1(C(=O)Nc2c(C)cccc2C)CCN([C@@H]2CCCC[C@H]2O)CC1 (relative stereo) [compound 93] | 0.63 | 30
30 | Cc1cccc(C)c1NC(=O)C1(N(C)C)CCN(CCO)CC1 [compound 167, 4-(dimethylamino)-N-(2,6-dimethylphenyl)-1-(2-hydroxyethyl)-4-piperidinecarboxamide] | 0.31 | 220
31 | Cc1cccc(C)c1NC(=O)C1(N(C)C)CCN([C@@H]2CCC[C@H]2O)CC1 (relative stereo) [compound 91] | 0.08 | 220
32 | Cc1cccc(C)c1NC(=O)C1(N(C)C)CCN(CC(O)CO)CC1 (centres unmarked) [compound 97] | 0.31 | 60
33 | COC1CNCCC1N1CCC(C(=O)Nc2c(C)cccc2C)(N(C)C)CC1 (stereo not drawn) [compound 85, cis-4-(dimethylamino)-N-(2,6-dimethylphenyl)-3'-methoxy-[l,4'-bipiperidine]-4-carboxamide] | 0.63 | 65
34 | Cc1cccc(C)c1NC(=O)C1(N(C)C)CCN(C2CCNCC2)CC1 [compound 86, 4-(dimethylamino)-N-(2,6-dimethylphenyl)-[1,4'-bipiperidine]-4-carboxamide] | 0.16 | 185
35 | Cc1cccc(C)c1NC(=O)C1(N(C)C)CCN([C@H]2CCCC[C@@H]2NC(N)=O)CC1 (relative stereo) [compound 224, trans-1-[2-[(aminocarbonyl)-amino]cyclohexyl]-4-(dimethyJamino)-N-(2,6-dimethylphenyl)-4-piperidinecarboxamide] | 0.04 | 130
36 | CCN(CC)C1(C(=O)Nc2c(C)cccc2C)CCN(C(C)COC)CC1 (centres unmarked) [compound 140] | 0.31 | 220
37 | CO[C@@H]1CCCC[C@H]1N1CCC(C(=O)Nc2c(C)cccc2C)(N(C)C)CC1 (relative stereo) [compound 18, trans-4-(dimethylamino)-N-(2,6-dimethylphenyl)-l-(2-methoxycyclo-hexyl)-4-piperidinecarboxamide] | 0.08 | 150
